Columns and labels:
[1] = test system: CHMC cells; assay: ionomycin-induced calcium ion flux in CHMC cells; format: cell-based, human; conditions: 10 μM compound
[2] = format: in vivo; conditions: 14-day repeat-dose; intranasal in rabbits and primates, oral in mice and rats
[3] = test system: basophils in whole human peripheral blood; assay: Basophil dustmite activation: histamine release assay; format: cell-based; conditions: read-out: Basophils Dust mite Histmine IC50
Description: The basophil activation assay was carried out using whole human peripheral blood from donors allergic to dust mites with the majority of the red blood cells removed by dextran sedimentation. Human peripheral blood was mixed 1:1 with 3% dextran T500 and RBCs were allowed to settle for 20-25 min. The upper fraction was diluted with 3 volumes of D-PBS and cells were spun down for 10 min at 1500 rpm, RT. Supernatant was aspirated and cells were washed in an equal volume MT-buffer. Finally, cells were resuspended in MT-buffer containing 0.5% DMSO in the original blood volume. 80 uL cells were mixed with 20 uL compound in the presence of 0.5% DMSO, in triplicate, in a V-bottom 96-well tissue culture plate. A dose range of 8 compound concentrations was tested resulting in a 10-point dose response curve including maximum (stimulated) and minimum (unstimulated) response. […] The cells were stimulated for 30 minutes at 37° C., 5% CO2. […] The ELISA was performed according to supplier's instructions.

[4] = test system: proteins downstream of Syk kinase in activated BMMC cells; assay: Phosphorylation of proteins in the IgE receptor signal transduction cascade in activated BMMC cells; format: cell-based, mouse; conditions: varying concentrations, FIG. 7
[5] = test system: proteins downstream of Syk kinase and LYN kinase in activated CHMC cells; assay: Phosphorylation of proteins in the FcεRI signal transduction cascade in activated CHMC cells; format: cell-based, human; conditions: FIG. 10

With `Oc1cccc(Nc2ncc(F)c(Nc3cccc(O)c3)n2)c1` [Compound R921218, N2,N4-Bis(3-hydroxyphenyl)-5-fluoro-2,4-pyrimidinediamine] the “ionomycin-induced Ca2+ flux” value [1] was “no effect on ionomycin-induced Ca^2+ flux”, the dose limiting toxicity [2] was “no dose limiting toxicity” and the IC50 [3] was 302 nM. The “phosphorylation of various proteins downstream of Syk kinase in the IgE receptor signal transduction cascade” value [4] was “inhibit phosphorylation” and the “phosphorylation of proteins downstream of Syk kinase in the FcεRI signal transduction cascade” value [5] was “inhibit phosphorylation”.
